Reference: patent publication US8357659B2, “Method of treating pain or itching with APETx2 peptide toxin” (priority 2008, dated 2013)

Assays:
human ASIC3 channels = biological target: T1, human ASIC3 channels (Homo sapiens, UniProt Q9UHC3); experiment: Whole cell patch clamp of human ASIC3 in transfected F-11 cells; type: cell-based; details: APETx2 at 1 μM; acidification pH 8.0 to pH 7.0
T1 construct: expressed in transfected cells; host or cells: F-11 cells, vector pASIC3h-IRES-EGFP, JetPEI
T1 sequence (Q9UHC3 1-531): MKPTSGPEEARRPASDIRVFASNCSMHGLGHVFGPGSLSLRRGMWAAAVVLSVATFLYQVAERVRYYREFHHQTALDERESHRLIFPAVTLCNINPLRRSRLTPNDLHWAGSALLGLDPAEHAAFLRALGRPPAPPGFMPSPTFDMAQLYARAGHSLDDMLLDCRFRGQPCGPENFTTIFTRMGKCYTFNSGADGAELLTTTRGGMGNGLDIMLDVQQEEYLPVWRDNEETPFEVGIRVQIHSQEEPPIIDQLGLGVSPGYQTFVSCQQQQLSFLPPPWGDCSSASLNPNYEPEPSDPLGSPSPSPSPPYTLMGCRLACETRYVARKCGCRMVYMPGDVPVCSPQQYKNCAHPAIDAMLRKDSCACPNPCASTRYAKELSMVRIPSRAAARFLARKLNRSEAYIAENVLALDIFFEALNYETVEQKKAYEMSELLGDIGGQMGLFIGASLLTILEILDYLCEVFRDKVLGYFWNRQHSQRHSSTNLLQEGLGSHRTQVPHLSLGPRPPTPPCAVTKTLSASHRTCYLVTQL
Method: F-11 cells (refs. 44, 45, 46, 47]) were cultured in 5% of CO2 at a density of 50,000 cells per 35 mm Petri dish. The culture medium contained HAM F-12 medium (Invitrogen) supplemented with 15% foetal bovine serum (ICN Biomedicals), 1×HAT (sodium hypoxanthine, aminopterine and thymidine), 200 μg/ml of allo-4-hydroxy-L-proline (Sigma-Aldrich) and 1% antibiotics. One day after seeding, the cells were transfected with ASIC1a or ASIC3 DNAc (rat clones) using Lipofectamine™ (Invitrogen) according to the manufacturer's instructions using the vectors pCI-ASIC1ar+pIRES2-EGFP (ratio 1:2) or pCI-ASIC3r+pIRES2-EGFP (ratio 1:10) ([ref. 36]), quoted above). For the experiments concerning the human ASIC3 clone (refer to experiments on the effects of the APETx2 toxin on the human form of the ASIC3 channel), the cells were transfected with the DNAc of human ASIC3 using the transfection agent JetPEI (Polypus Transfection) according to the manufacturer's instructions with the aid of the vector pASIC3h-IRES-EGFP. […]
The whole cell configuration of the patch clamp method was used ([ref. 48]) in order to measure the membrane currents (imposed voltage) or the membrane potentials (imposed current). […] The data were sampled at 10 kHz, digitised using a Digidata 1322A A-D/D-A converter (Axon Instruments) and recorded on a hard disk using pClamp software (version 9.2.0.11, Axon Instruments). […]

ASIC1b = biological target: T2, ASIC1b (Rattus norvegicus, UniProt P55926); details: cited from earlier work
T2 sequence (P55926 1-559 isoform P55926-3): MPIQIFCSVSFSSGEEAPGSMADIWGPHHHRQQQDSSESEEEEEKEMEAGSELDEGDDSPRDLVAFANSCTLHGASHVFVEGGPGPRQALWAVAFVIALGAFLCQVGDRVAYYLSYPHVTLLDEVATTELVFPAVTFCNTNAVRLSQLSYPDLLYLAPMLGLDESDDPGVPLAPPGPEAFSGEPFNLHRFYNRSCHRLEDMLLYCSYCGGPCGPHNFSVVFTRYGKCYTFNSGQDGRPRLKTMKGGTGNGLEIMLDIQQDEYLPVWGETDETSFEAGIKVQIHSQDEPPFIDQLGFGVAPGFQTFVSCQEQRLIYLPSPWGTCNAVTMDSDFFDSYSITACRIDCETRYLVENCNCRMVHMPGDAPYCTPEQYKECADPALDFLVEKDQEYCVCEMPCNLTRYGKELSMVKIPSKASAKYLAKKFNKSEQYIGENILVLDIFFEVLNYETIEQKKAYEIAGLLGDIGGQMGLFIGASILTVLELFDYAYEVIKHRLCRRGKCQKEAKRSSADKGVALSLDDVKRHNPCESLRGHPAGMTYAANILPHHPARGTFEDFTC

[1] = tested on: cutaneous pain induced by moderate acidification; experiment: Nociceptive behaviour in rats after subcutaneous injection of moderately acidic solutions; type: in vivo, rat; details: FIG. 5A
Method: Adult (7-8 weeks' old) male Wistar rats (Charles River, France) were placed in plastic cages with a nyctohemeral period of 12 h (with light between 8 a.m. and 8 p.m.) and with free access to food and water. The rats were left to acclimatize for at least one week before the experiments. For the behavioural experiments, the rats were placed in a transparent observation chamber where they were acclimatized for 20-30 minutes. They were subsequently immobilised while 20 μl of saline solution (0.9% or 2% of NaCl+20 mM of HEPES, […] or 60 nM of PcTx1 toxin), was administered subcutaneously to the dorsal side of the right hind paw using a 30G needle connected to a 100 μl Hamilton syringe. The nociceptive behaviour (i.e. the number of hind leg quiverings) was recorded over a 5-minute period, starting immediately after the injection ([ref. 59]).

peptide of 42 amino acids (SEQ ID NO: 3), three disulphide bonds, from sea anemone Anthopleura elegantissima; blocks ASIC3 [APETx2]
amplitude of the human ASIC3 currents (human ASIC3 channels): significantly reduced
effect on ASIC1b isoform (ASIC1b): does not have any effect
behaviour in response to acid pain with inflammatory signals ([1]; pH 6.9 + 2% NaCl + AA, 10 μM APETx2 or 60 nM PcTx1 in injected solution): markedly reduced
pain behaviour after subcutaneous injection of acidic solution ([1]; pH 6.9, 10 μM APETx2 in injected solution): suppressed
